Patent publication US10328143B2, “Hemagglutinin-binding peptide” (priority 2014, dated 2019)

Tested on: influenza virus H5N1-Vac3
Type: cell-based

In the case of “Cyclo(Ac-Trp-Thr-MeGly-Asp-MePhe-MePhe-Ser-MeSer-His-Tyr-Thr-Val-Pro-Dap-Cys)-amide [iHA-100-R14Dap]”, the anti-viral effect is reported as “high anti-viral effect” and the “anti-viral effect at low concentration” value is reported as “high anti-viral effect even when their concentration is low”.

In the case of “Cyclo(Ac-Trp-Thr-MeGly-Asp-MePhe-MePhe-Ser-MeSer-His-Tyr-Thr-Val-Pro-Glu-Cys)-amide [iHA-100-R14E]”, the anti-viral effect is reported as “high anti-viral effect”.

For “Cyclo(Ac-Trp-Thr-MeGly-Asp-MePhe-MePhe-Ser-MeSer-His-Tyr-Thr-Val-Pro-Ala-Cys)-amide [iHA-100-R14A]”, the anti-viral effect was “high anti-viral effect” and the “anti-viral effect at low concentration” value was “high anti-viral effect even when their concentration is low”.
